# Assay results as given in patent publication US20080089884A1, “Compositions and methods for the modulation of detrusor activity” (priority 2006, published 2008).
# Tests used:
# [1] = system: urinary retention; conditions: randomized placebo controlled trials; cited from earlier work
# [2] = system: bladder function, men with BPH; conditions: cited from earlier work
# [3] = system: post-void residual in ambulatory older women; conditions: estrogen users, 204 ambulatory women, mean age 79 years; cited from earlier work
# [4] = system: primary rat detrusor muscle cultures; assay type: cell-based; conditions: 1 μg/ml, bladder smooth muscle cells, data not shown
# Experimental: Tissue culture. Primary bladder muscle cultures were derived from newborn Sprague-Daley rats (Charles River; Wilmington, Mass.). The bladders were harvested, minced and added to 3 ml dissociation solution containing 0.5 mg/ml collagenase, 0.5 mg/ml elastase, 2 μg/ml DNAse (Worthington, Lakewood, N.J.) and 1 mg/ml soybean trypsin inhibitor (Gibco, Carlsbad, Calif.). The tissue was triturated at 15 minute intervals for 45 minutes using fire polished pasteur pipets. The cell solution was filtered through a 40 μm cell strainer and spun at 1000 rpm for 5 minutes. […] The cell number was determined and cells were plated at a density of 25,000 cells/cm2 in poly-L-lysine coated (P-6282, Sigma) 12-well plates (#3513, Corning, Corning, N.Y.) for biochemical and flow cytometry studies and on plastic 8-well chamber slides (#354108, BD Bioscience, San Jose, Calif.) for immunohistochemistry or TUNEL staining. […]
# Apoptosis detection. […] Following treatment with rMIF, cells were analyzed using a kit (PF032, Calbiochem, San. Diego, Calif.) to separate apoptotic and necrotic cells on flow cytometry. […] Cells were analyzed using a Becton Dickenson FACS caliber flow cytometer with collection and analysis of data performed using Becton Dickinson CELLQuest software. TUNEL staining was detected using a kit (Roche) with DAB microscopy of cells grown 5-7 days in 8-well chamber slides. […]
# [5] = system: MIF protein release from rat bladder muscle culture cells; assay: MIF ELISA of supernatants from rat bladder muscle cultures; assay type: cell-based; conditions: TNF-α 50 ng/ml for 24 hours, 3 separate cultures
# Experimental: Tissue culture. Primary bladder muscle cultures were derived from newborn Sprague-Daley rats (Charles River; Wilmington, Mass.). The bladders were harvested, minced and added to 3 ml dissociation solution containing 0.5 mg/ml collagenase, 0.5 mg/ml elastase, 2 μg/ml DNAse (Worthington, Lakewood, N.J.) and 1 mg/ml soybean trypsin inhibitor (Gibco, Carlsbad, Calif.). The tissue was triturated at 15 minute intervals for 45 minutes using fire polished pasteur pipets. The cell solution was filtered through a 40 μm cell strainer and spun at 1000 rpm for 5 minutes. The supernatant was aspirated and cells resuspended in DMEM-F/12 medium containing 1% FBS, 1% N-2 supplement and 1% Penicillin/Streptomycin (Gibco). The cell number was determined and cells were plated at a density of 25,000 cells/cm2 in poly-L-lysine coated (P-6282, Sigma) 12-well plates (#3513, Corning, Corning, N.Y.) for biochemical and flow cytometry studies and on plastic 8-well chamber slides (#354108, BD Bioscience, San Jose, Calif.) for immunohistochemistry or TUNEL staining. Cells were maintained at 37° C. and 5% CO2 in a humidified chamber. The presence of 1% FBS was required for the success of initial plating. […]
# MIF ELISA. […] MIF concentrations were calculated by extrapolation from a quadratic standard curve using human rMIF (range: 0-12 ng/ml, sensitivity: 150 pg/ml).
# [6] = system: incontinence due to detrusor over activity with DHIC; conditions: cited from earlier work
molecule,measurement,setting,value
CC(C[N+](C)(C)C)OC(N)=O (stereo not drawn) [Bethanechol chloride],clinically-relevant outcomes,[1],does not improve clinically-relevant outcomes
CC(C)[N+](C)(CCOC(=O)C1c2ccccc2Oc2ccccc21)C(C)C [propantheline],acute urinary retention,[2],5/6
estrogen,mean PVR,[3],39.3 mL
C[C@@H]1C[C@@H]([C@H](O)CC2CC(=O)NC(=O)C2)C(=O)[C@@H](C)C1 [cyclohexamide],apoptosis or necrosis induced by cyclohexamide alone,[4],does not induce apoptosis or necrosis
TNF-α,increase in MIF protein levels detectable in the supernatant,[5],approximately 30%
CCN(CC)CC#CCOC(=O)C(O)(c1ccccc1)C1CCCCC1 (stereo not drawn) [oxybutynin],decrease in daily incontinence frequency,"[6]; intention-to-treat, 64 subjects on immediate-release oxybutynin started at 2.5 mg and titrated",68%
same,"evaluable subjects with no end-study leakage, impaired contractility","[6]; on oxybutynin, 9/19 subjects",47%
same,"evaluable subjects with no end-study leakage, normal contractility","[6]; on oxybutynin, 25/35 subjects",71%
same,subjects with no incontinence episodes on the end-study bladder diary,[6]; subjects randomized to oxybutynin,34/64
